The target of this experiment is Ubiquitin carboxyl-terminal hydrolase 28 (Homo sapiens) (UniProt Q96RU2). Briefly: Ubiquitin-specific peptidase 28 DUB inhibitors, biochemical concentration-dependence assay, validation of primary screening hits (AID 1645866). The settings on record: purified USP28, ubiquitin-rhodamine fluorescence, 30 min.

The source made the active and inactive calls.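 How the source made its calls: active means in confirmatory dose-response testing, peak deubiquitinase inhibition of 30% or more; inactive means the rest.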 A value given as a limit tells only on which side of the number the result lay.

A word on the IC50: it is the concentration needed to halve the response being measured.

Chain of Ubiquitin carboxyl-terminal hydrolase 28 (Homo sapiens) (Q96RU2 whole entry, looked up): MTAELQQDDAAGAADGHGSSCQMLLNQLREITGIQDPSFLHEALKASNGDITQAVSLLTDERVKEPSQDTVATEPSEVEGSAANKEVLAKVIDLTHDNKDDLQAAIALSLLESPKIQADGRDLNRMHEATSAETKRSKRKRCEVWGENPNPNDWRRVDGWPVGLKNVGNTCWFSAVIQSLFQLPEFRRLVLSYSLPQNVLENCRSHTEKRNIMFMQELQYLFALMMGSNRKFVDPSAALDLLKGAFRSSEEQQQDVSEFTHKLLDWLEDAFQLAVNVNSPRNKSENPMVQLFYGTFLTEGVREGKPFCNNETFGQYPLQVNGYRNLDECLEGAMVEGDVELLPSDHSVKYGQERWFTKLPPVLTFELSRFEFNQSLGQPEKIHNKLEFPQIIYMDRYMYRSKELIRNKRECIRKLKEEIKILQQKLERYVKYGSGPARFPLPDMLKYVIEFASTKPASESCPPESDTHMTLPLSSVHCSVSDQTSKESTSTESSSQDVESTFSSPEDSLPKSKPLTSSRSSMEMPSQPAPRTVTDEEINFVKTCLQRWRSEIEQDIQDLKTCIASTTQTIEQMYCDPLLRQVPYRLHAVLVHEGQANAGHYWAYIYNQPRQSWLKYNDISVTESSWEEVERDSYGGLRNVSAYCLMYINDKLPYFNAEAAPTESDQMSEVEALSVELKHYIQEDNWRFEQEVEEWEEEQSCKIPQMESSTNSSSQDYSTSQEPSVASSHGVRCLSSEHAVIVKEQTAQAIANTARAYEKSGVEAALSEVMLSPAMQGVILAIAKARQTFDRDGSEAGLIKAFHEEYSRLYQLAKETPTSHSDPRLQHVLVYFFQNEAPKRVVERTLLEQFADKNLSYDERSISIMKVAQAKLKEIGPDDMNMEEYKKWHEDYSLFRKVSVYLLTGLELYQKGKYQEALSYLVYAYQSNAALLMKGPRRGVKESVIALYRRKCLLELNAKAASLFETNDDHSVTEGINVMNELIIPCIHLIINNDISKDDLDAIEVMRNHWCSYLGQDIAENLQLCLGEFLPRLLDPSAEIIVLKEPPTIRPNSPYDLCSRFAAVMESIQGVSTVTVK

For `CC(C)CC1NC(=O)C2CCCN2C1=O` (stereo not drawn), the IC50 was 37.1 µM.
The figure for `COc1ccccc1NC(=O)Nc1ccc(NC(=O)c2ccccc2O)cc1` is 37.4 µM.
The figure for `O=C(CCCn1c(=O)[nH]c2cc(Cl)ccc2c1=O)N1CCc2ccccc2C1` is 19.4 µM.
The figure for `CCOc1ccc(NC(=O)COc2cccc3c2CCN(CC)C3=O)cc1` is 4.24 µM; for `CC1(C)Cc2nc3sc4c(=O)n(CC(=O)NCc5ccccc5)cnc4c3cc2CO1` it is 32.9 µM; for `C=C[C@]1(C)C=C2C(=O)[C@]3(O)OC(=O)[C@@]4(CCCC(C)(C)[C@H]34)[C@@]2(O)CC1` it is 27.6 µM.
As to `CC1OC2CC(O)C1(O)C1=C2C(=O)c2c(O)c3c(c(O)c2C1=O)[C@H](C)O[C@H]1CC(=O)O[C@@H]31` (stereo partly drawn), the IC50 was > 50 µM (inactive).
As for `O=C(Cn1c(-c2ccccc2)ncc(C(=O)NC2CC2)c1=O)Nc1ccccc1`, the figure is 14.2 µM; as for `Cc1nnc(-c2nnc(NCc3ccc(Cl)cc3)c3ccccc23)o1`, > 50 µM (inactive); as for `Cc1c(C(=O)Nc2ccc(-c3nnc4n3CCCCC4)cc2)oc2c1ccc1ccccc12`, 4.09 µM.
As for `O=C(COc1nsnc1N1CCOCC1)Nc1ccc(F)c(F)c1`, the figure is > 50 µM (inactive); as for `COc1cccc(NC(=O)CSc2nnc(-c3cc4cccc(OC)c4o3)n2C)c1`, 14.6 µM; as for `CCCCCC(O)c1c(O)cc2c(c1O)C(=O)c1c(O)cc(O)cc1C2=O` (stereo not drawn), > 50 µM (inactive).
`Cc1ccc(Cl)cc1NC(=O)c1cc(-c2ccccn2)n[nH]1`: the IC50 is 13.4 µM.
The figure for `Cc1cnc2nc3c(cc2c1)CN(S(=O)(=O)c1cc(F)ccc1C)CC3` is > 50 µM (inactive); for `CC(C)NC(=O)Cn1ccn2nc(-c3ccc(Cl)cc3)cc2c1=O` it is 8.61 µM; for `CCCCCCCc1cc(O)cc(O)c1` it is 4.32 µM.
As for `CC(=O)O[C@H]1[C@]2(O)C[C@]34SS[C@](CO)(C(=O)N3[C@@H]2C[C@@]12O[C@@H](C)C(C)(C)C2=O)N(C)C4=O`, the figure is > 50 µM (inactive).
The figure for `COC1/C=C/OC2(C)Oc3c(C)c(O)c4c(c3C2=O)C(=O)C=C(NC(=O)/C(C)=C\C=C\C(C)C(O)C(C)C(O)C(C)C(OC(C)=O)C1C)C4=O` (stereo not drawn) is 38 µM.
As to `NS(=O)(=O)c1ccc(NC(=O)Cn2cnc3cc([N+](=O)[O-])ccc3c2=O)cc1`, the IC50 was 19.9 µM.
The figure for `CCCc1nc2sc3c(NCCc4ccc(OC)c(OC)c4)ncnc3c2c2c1CCC2` is less than 0.05 µM.
As for `COC1C(O)=C2C(=O)O/C(C)=C/C=C/C=C/C=C/CC(c3ccccc3)NC(=O)/C=C/C=C/C=C\C=C\C2(C)C1O` (stereo not drawn), the figure is > 50 µM (inactive); as for `O=C(Cn1cncc(C(=O)NC2CCCC2)c1=O)Nc1cccc(F)c1`, 21.6 µM.
The figure for `CC1(C(=O)NCc2ccccc2)Cn2c(cc3ccccc32)C(=O)N1Cc1ccccc1` (stereo not drawn) is 48.7 µM; for `O=C(Nc1ccc(N2CCOCC2)cc1)c1ccc(-c2ccc(N3CCCC3)nn2)cc1` it is > 50 µM (inactive).
For the compound `Cc1nc(-c2cccc(NC(=O)c3ccccc3Cl)c2)no1`, the IC50 was 16.6 µM.
With `Cc1ccccc1Cn1ccc2ccn(Cc3cccnc3)c2c1=O`, the half-maximal inhibitory concentration (IC50) was 10.4 µM.
The figure for `Cn1ccc2c(cc(C(=O)NCCC3=CCCCC3)n2C)c1=O` is 21.1 µM; for `CN=C(N)NCCC/C=C/CCCC(C)CC(C)C1OC(=O)/C=C/C(C)C(O)CC(O)C(C)C(O)CCC(C)C(O)CC2(O)OC(CC(OC(=O)CC(=O)O)CC(O)CC(O)C(C)C(O)/C=C/C1C)CC(O)C2O` (stereo not drawn) it is 19.8 µM.
For the compound `CC(C)Cc1nc2sc3c(NCc4ccccc4)ncnc3c2c2c1COC(C)(C)C2`, the IC50 is 6.15 µM.
The figure for `Cc1cc(Cl)ccc1NC(=O)c1cc(-c2cccnc2)n[nH]1` is > 50 µM (inactive).
`Cc1cccc(C(=O)Nc2ccccc2Sc2nc3c(c(=O)n(C)c(=O)n3C)n2C)c1`: the IC50 is 42.6 µM.
The figure for `CCc1ccc(C2c3c(oc4ccccc4c3=O)C(=O)N2c2nncs2)cc1` (stereo not drawn) is > 50 µM (inactive); for `COc1c2c(cc3cc(O)c4c(=O)cc(C)oc4c13)CCC2=O` it is 28.8 µM; for `O=C(NCc1ccc2c(c1)OCO2)c1[nH]nc2c1COc1ccccc1-2` it is 7.75 µM.
The figure for `CC1(C(=O)NC2CCCC2)Cn2c(cc3ccccc32)C(=O)N1c1ccc(F)cc1` (stereo not drawn) is 21.3 µM; for `Cc1ccc(Cn2nnc(-c3noc(-c4ccc[nH]4)n3)c2C)cc1` it is 11.6 µM.
Consider `Cc1nnc(NC(=O)C2CCN(c3ccc(S(N)(=O)=O)cc3[N+](=O)[O-])CC2)o1`, for which the IC50 is 11.1 µM.
As for `Fc1ccc(CN2CCc3nc4cccnc4cc3C2)cc1`, the figure is > 50 µM (inactive); as for `Cc1cc(=O)n(C)c2c(O)c3c(cc12)c(C)cc(=O)n3C`, 43.9 µM; as for `COc1ccc2[nH]c3c(c2c1)CCN1C(=O)N(c2ccccc2C(=O)NCc2ccccc2)C(=O)[C@]31C`, 46.4 µM.
As for `O=C(COc1ccc(Cl)cc1)NCc1nnc(SCC(=O)NCc2ccc3c(c2)OCO3)o1`, the figure is 28.4 µM; as for `O=C(CNC(=O)OCc1ccccc1)Nc1ccc(Br)cc1C(=O)c1ccccc1Cl`, 11.3 µM; as for `O=C(Nc1ccccc1)c1nc2c(s1)CCN(C(=O)c1ccccc1)CC2`, > 50 µM (inactive).
As for `COc1cccc(CCNC(=O)CCn2c(=O)c(C)nc3cc(C)c(C)cc32)c1`, the figure is > 50 µM (inactive); as for `Cc1[nH]nc(NC(=O)C2COc3ccccc3O2)c1-c1ccccc1` (stereo not drawn), 15.1 µM.
In the case of `COc1ccc(C(=O)Nc2sc3c(c2C(=O)NCc2cccnc2)CCCC3)cc1`, the IC50 was 11.8 µM.
Regarding `c1ccc2c(c1)CCc1c-2nc2ccccc2c1N1CCOCC1`, the IC50 was > 50 µM (inactive).
Turning to `CC(CCc1ccccc1)NC(=O)Cn1c(=O)c2cccn2c2ccccc21` (stereo not drawn), the IC50 is 14.3 µM.
The figure for `Cc1ccc(C)c(CSC2=NCCN2C(=O)c2ccco2)c1` is 4.07 µM; for `COc1cc2cc3c(c(O)c2c(O)c1-c1c(OC)cc2cc4c(c(O)c2c1O)C(=O)OC1CC(C)OC41)C(=O)OC1CC(C)OC31` (stereo not drawn) it is > 50 µM (inactive).
As for `CSc1nc(Cc2ccc(Cl)cc2)nc2ccccc12`, the figure is 14 µM.
As for `Cc1c(OCC(=O)Nc2nc3ccccc3[nH]2)ccc2c3c(c(=O)oc12)CCC3`, the IC50 was 0.541 µM.
The figure for `O=C(Nc1ccc(Cl)cc1)Nc1cccn2ncnc12` is 11.9 µM; for `Cc1noc(-c2cc(=O)n(CC(=O)NCc3ccccc3F)c3ccccc23)n1` it is 9.89 µM.
With `Cc1nc2ccc(NC(=O)COc3ccccc3[N+](=O)[O-])cc2s1`, the IC50 was 11.8 µM.
As for `O=C(COc1ccc(Cl)cc1Cl)Nc1ccccc1-c1nc2ccccc2[nH]1`, the figure is 2.38 µM; as for `Cc1ccc(OC(=O)c2cn(-c3ccccc3)nc2-c2cccnc2)cc1`, > 50 µM (inactive).
The figure for `O=C(Cc1cc(-c2ccccc2)on1)NCc1c(F)cccc1F` is 29.1 µM; for `O=C(COC(=O)c1ccc(Cl)cc1)Nc1ccc2[nH]c(=O)[nH]c2c1` it is 9.08 µM; for `CCc1ccc(NC(=O)Cc2nnc(-c3ccc4ncccc4c3)o2)cc1` it is 25.9 µM.
Consider `O=C(CNc1ccc(F)c(Cl)c1)Nc1ccc2c(c1)OCCO2`, for which the IC50 is 15.6 µM.
Take `COc1ccc2nc(Nc3ncc4c(n3)CCCC4=O)nc(C)c2c1`: the IC50 is > 5 µM (inactive).
As for `CC1OC2CC(O)C1(O)C1=C2C(O)=C(C(N)=O)C(=N)C1=O` (stereo not drawn), the figure is 12.3 µM; as for `Cc1ccccc1NC(=O)Cn1cc(-c2nc(C3CC3)no2)ccc1=O`, > 50 µM (inactive).
With `COc1cccc(-n2ccc(=O)c(-c3nc(-c4ccccc4Cl)no3)n2)c1`, the IC50 was 27.4 µM.
Turning to `O=C(Nc1ccc(F)c(Cl)c1)c1ccc(N2CCCCS2(=O)=O)cc1Cl`, the IC50 was 30.5 µM.
As for `COc1cc(C2SCC(=O)Nc3c2c(-c2ccccc2)nn3-c2ccccc2)cc(OC)c1OC` (stereo not drawn), the figure is 3.37 µM.
The figure for `CCOC(=O)c1ccc(-n2c(=O)c(C#N)cc3c(=O)n4ccccc4nc32)cc1` is > 50 µM (inactive); for `CCC(=O)N1c2ccccc2NC2=C(C(=O)CC(c3ccccc3OCc3ccccc3)C2)C1c1ccccc1` (stereo not drawn) it is 4.53 µM.
As for `CCOc1ccccc1NC(=O)COc1cc(OC)ccc1C(=O)c1ccccc1`, the figure is 4.45 µM.
As to `O=C(Cn1cnc2c(cnn2-c2ccc(Cl)cc2)c1=O)NCc1ccccc1Cl`, the IC50 is 9.05 µM.
The figure for `O=C1CC(c2cc3c(cc2Br)OCO3)c2cc3c(cc2N1)OCCO3` (stereo not drawn) is 14.9 µM; for `O=C(Cn1c(=O)n(Cc2ccc3c(c2)OCO3)c(=O)c2ncccc21)c1ccc(Cl)cc1` it is 30.4 µM; for `CC(C)N1CC2CN(Cc3ccc(Cl)cc3)CCN2Cc2ccccc21` (stereo not drawn) it is > 50 µM (inactive).
As for `COc1ccc(C2CC(c3ccccc3)N(C(=O)C3CC3)c3ncnn32)cc1` (stereo not drawn), the figure is > 50 µM (inactive).
As for `O=c1[nH]c(C2CCN(S(=O)(=O)c3ccc(S(=O)(=O)NC4CCCCC4)cc3)CC2)nc2c1nnn2Cc1c(Cl)cccc1Cl`, the figure is 8.62 µM; as for `O=C(CSc1nnc(CNC(=O)c2ccccc2F)o1)Nc1ccc(OC(F)(F)F)cc1`, 28.9 µM; as for `COc1ccccc1CNC(=O)C1CCCN(c2nc3ccsc3c(=O)s2)C1` (stereo not drawn), 9.07 µM.
Consider `O=C(NC1CCN(Cc2ccccc2)CC1)c1[nH]nc2c1CCc1ccccc1-2`, for which the IC50 is 6.27 µM.
For the compound `CCc1ccc(C(C)NC(=O)C2CCN(c3ccc4nncn4n3)CC2)cc1` (stereo not drawn), the IC50 is 16.4 µM.
As for `C=C1CCC2[C@](C)(CCC[C@]2(C)C(=O)OC)[C@H]1CCc1ccoc1CNC(C)C` (stereo partly drawn), the IC50 is > 50 µM (inactive).
As for `CCOc1ccc2c(c1)c(=O)c(C(=O)c1ccccc1)cn2CC(=O)Nc1ccc2c(c1)OCCO2`, the figure is 24 µM; as for `Cc1nc(-c2ccccc2F)sc1C(=O)Nc1cccnc1`, 26.8 µM.
As for `COc1ccc(NC(=O)CC(=O)c2ccc([N+](=O)[O-])cc2)cc1S(=O)(=O)Nc1ccc(Br)cc1`, the figure is 28.1 µM; as for `COc1ccc(-c2cc3c(=O)n(CC(=O)Nc4ccccc4Cl)ccn3n2)cc1`, 10 µM.
As for `CCCc1cc(=O)n2[nH]c(COc3ccccc3)c(-c3ccccc3)c2n1`, the figure is 28.8 µM; as for `Cc1ccc(NC(=O)CCC(=O)Nc2ccc3nc(N4CCCCC4)cc(C)c3c2)c(Br)c1`, 22.7 µM.
